Usually IC50 stands for the concentration at which inhibition is half-maximal. A word on the melting point: it is the temperature, or range, at which the solid turns liquid.

Structures can show the parent of a compound that is named as a salt. Where only a bound is given, the exact number is not on record here.

This passage reports activity, IC50 and melting point results from PMC11123921, “Synthesis and Evaluation of 5-(Heteroarylmethylene)hydantoins as Glycogen Synthase Kinase-3β Inhibitors” (Pharmaceuticals, 2024).

human matrix metalloproteinase-12, sequence (P39900 106-470): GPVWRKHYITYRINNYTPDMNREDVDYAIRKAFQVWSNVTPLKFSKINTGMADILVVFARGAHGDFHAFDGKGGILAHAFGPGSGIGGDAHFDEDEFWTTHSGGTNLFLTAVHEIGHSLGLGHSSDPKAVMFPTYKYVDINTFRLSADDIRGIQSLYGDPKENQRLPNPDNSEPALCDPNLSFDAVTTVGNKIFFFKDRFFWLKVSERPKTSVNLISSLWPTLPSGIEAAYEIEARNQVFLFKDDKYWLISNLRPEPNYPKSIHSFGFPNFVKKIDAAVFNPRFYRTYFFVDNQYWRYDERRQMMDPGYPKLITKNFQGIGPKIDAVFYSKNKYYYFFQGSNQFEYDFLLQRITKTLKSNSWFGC

The first data set concerns the target human matrix metalloproteinase-12 (Homo sapiens, UniProt P39900). The data set can be described thus: Matrix metalloproteinase-12 fluorogenic substrate assay. It counts as biochemical. The note with it: 25 μM compound; read-out: MMP-12 % Activity @ 25 μM. The method, then:
(§1) 5-(Heteroarylmethylene)hydantoins were evaluated as inhibitors for MMP-12 at fixed concentrations of 200 and 25 μM (Table 1). At 200 μM of 20–24, the activity of MMP-12 was ≤50% the activity of positive control; for compounds 21, 24, and 25 at 25 μM, the activity of MMP12 was 69–74% while the activity for the others was >80%. […] A select subset of the 5-(heteroarylmethylene)hydantoins were evaluated as inhibitors of human carbonic anhydrase II (hCAII) at 200 μM (Table 1). […] Finally, this same subset of 5-(heteroarylmethylene)hydantoins were evaluated as inhibitors of isolated S. aureus pyruvate carboxylase (SaPC) in a fixed-time assay (Table 1). No inhibitory activity was observed up to 1000 μM.
Assays for human matrix metalloproteinase-12 activity were performed in a 96-well plate format for a total reaction volume of 100 μL, in an assay modified from Day and Cohen. All assay reagents were prepared and maintained at 22 °C until warmed to 37 °C. The omniMMP fluorogenic substrate and MMP-12 enzyme were prepared in assay buffer (50 mM HEPES, 10 mM CaCl2, 0.05% Brij-35, pH of 7.52), and small molecule effectors were prepared as a solution in 50% DMSO, 50% assay buffer. The final concentration of enzyme in the 100 μL enzymatic reaction was 0.0083 U/μL. A known inhibitor, N-[(4’-bromo [1,1’-biphenyl]-4-yl)sulfonyl]-L-valine (PD166793), was included where noted at a final concentration of 100 μM. OmniMMP fluorogenic substrate was added to the 100 μL enzymatic reaction at a final concentration of 4 μM. For all experiments, 30 μL of enzyme stock solution was added to each well in a 96-well, flat-bottom, black polystyrene microplate (SantaCruz Biotechnology, Dallas, TX, USA), followed by the addition of 10 μL of the effectors (50% assay buffer, 50% DMSO for the uninhibited reaction, PD166793 for the inhibition). The 96-well plate was then incubated in a plate reader at 37 °C for 30 min; concurrently, the substrate solution was also warmed to 37 °C for 30 min. The enzymatic reaction was initiated by adding 60 μL of the omniMMP fluorogenic substrate solution. The change in fluorescence was then monitored for 30 min with excitation and emission wavelengths at 320 and 400 nm, respectively, every 46 s for a total of 40 measurements.
Regarding `Cc1ccc(/C=C2\NC(=O)NC2=O)nc1` [Compound 22, (Z)-5-[(5′-Methyl-2-pyridinyl)methylene]-2,4-imidazolidinedione], the activity at 25 µM turned out to be 101%.

For `O=C1NC(=O)/C(=C/c2cccnc2)N1` [Compound 19, (Z)-5-[(3′-Pyridinyl)methylene]-2,4-imidazolidinedione], the activity at 25 µM is 84.2%.

Consider `O=C1NC(=O)/C(=C/c2ccc3ccccc3n2)N1` [Compound 18, (Z)-5-[(2-Quinolinyl)methylene]-2,4-imidazolidinedione], for which the activity at 25 µM amounted to 94.1%.

Turning to `O=C1NC(=O)/C(=C/c2cccc(Br)n2)N1` [Compound 27, (Z)-5-[(6′-Bromo-2-pyridinyl)methylene]-2,4-imidazolidinedione], the activity at 25 µM was found to be 85.8%.

`Cc1ccnc(/C=C2\NC(=O)NC2=O)c1` [Compound 21, (Z)-5-[(4′-Methyl-2-pyridinyl)methylene]-2,4-imidazolidinedione-HCl]: the activity at 25 µM is 71.6%.

Take `Cc1cccc(/C=C2\NC(=O)NC2=O)n1` [Compound 23, (Z)-5-[(6′-Methyl-2-pyridinyl)methylene]-2,4-imidazolidinedione-HCl]: the activity at 25 µM stood at 86.4%.

Still in this data set, the particulars now being: 200 μM compound; read-out: MMP-12 % Activity @ 200 μM.
Consider `Cc1ccc(/C=C2\NC(=O)NC2=O)nc1` [Compound 22, (Z)-5-[(5′-Methyl-2-pyridinyl)methylene]-2,4-imidazolidinedione], for which the activity at 200 µM worked out at 40.7%.

As for `O=C1NC(=O)/C(=C/c2cccnc2)N1` [Compound 19, (Z)-5-[(3′-Pyridinyl)methylene]-2,4-imidazolidinedione], the activity at 200 µM came to 50.6%.

Take `O=C1NC(=O)/C(=C/c2ccc3ccccc3n2)N1` [Compound 18, (Z)-5-[(2-Quinolinyl)methylene]-2,4-imidazolidinedione]: the activity at 200 µM came to 57.6%.

Consider `O=C1NC(=O)/C(=C/c2cccc(Br)n2)N1` [Compound 27, (Z)-5-[(6′-Bromo-2-pyridinyl)methylene]-2,4-imidazolidinedione], for which the activity at 200 µM came to 88.7%.

On to `Cc1ccnc(/C=C2\NC(=O)NC2=O)c1` [Compound 21, (Z)-5-[(4′-Methyl-2-pyridinyl)methylene]-2,4-imidazolidinedione-HCl], for which the activity at 200 µM was found to be 28.5%.

On to `Cc1cccc(/C=C2\NC(=O)NC2=O)n1` [Compound 23, (Z)-5-[(6′-Methyl-2-pyridinyl)methylene]-2,4-imidazolidinedione-HCl], for which the activity at 200 µM turned out to be 46.5%.

The target in the next data set is T1, Staphylococcus aureus pyruvate carboxylase (SaPC) (Staphylococcus aureus, UniProt A0A0H3JRU9).
T1 sequence (A0A0H3JRU9 1-1150): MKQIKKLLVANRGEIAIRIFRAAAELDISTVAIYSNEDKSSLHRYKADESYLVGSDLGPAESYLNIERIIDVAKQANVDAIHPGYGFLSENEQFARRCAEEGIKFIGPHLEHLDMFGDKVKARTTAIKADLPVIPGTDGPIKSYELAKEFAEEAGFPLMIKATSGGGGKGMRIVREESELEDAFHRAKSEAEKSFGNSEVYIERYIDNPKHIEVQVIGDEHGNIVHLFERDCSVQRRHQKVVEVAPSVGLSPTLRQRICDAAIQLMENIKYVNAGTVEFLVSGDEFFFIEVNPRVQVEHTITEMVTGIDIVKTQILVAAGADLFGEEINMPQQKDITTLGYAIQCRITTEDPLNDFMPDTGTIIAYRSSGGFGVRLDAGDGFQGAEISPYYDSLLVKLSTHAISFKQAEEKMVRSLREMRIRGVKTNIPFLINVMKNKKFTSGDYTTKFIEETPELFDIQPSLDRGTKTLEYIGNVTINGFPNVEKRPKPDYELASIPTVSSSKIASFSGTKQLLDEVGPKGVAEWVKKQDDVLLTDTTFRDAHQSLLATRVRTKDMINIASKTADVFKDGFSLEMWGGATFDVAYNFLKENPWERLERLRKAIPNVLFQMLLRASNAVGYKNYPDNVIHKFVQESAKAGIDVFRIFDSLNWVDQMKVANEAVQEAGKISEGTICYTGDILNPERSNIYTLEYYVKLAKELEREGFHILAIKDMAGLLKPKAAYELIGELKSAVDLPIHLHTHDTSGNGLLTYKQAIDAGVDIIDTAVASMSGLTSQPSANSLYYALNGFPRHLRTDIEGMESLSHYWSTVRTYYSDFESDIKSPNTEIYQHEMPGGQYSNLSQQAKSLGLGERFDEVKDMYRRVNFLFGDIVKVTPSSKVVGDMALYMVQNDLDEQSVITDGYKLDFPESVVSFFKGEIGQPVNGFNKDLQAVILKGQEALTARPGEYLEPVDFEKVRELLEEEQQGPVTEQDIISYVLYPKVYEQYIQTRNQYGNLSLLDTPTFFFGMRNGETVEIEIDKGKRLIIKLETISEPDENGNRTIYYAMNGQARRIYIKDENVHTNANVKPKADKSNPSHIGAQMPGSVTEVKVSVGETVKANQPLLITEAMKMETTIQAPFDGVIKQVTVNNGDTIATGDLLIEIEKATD
The experiment in a line: biochemical. The note with it: isolated SaPC.
For `Cc1ccc(/C=C2\NC(=O)NC2=O)nc1` [Compound 22, (Z)-5-[(5′-Methyl-2-pyridinyl)methylene]-2,4-imidazolidinedione], the IC50 is over 1000 µM.

For the molecule `O=C1NC(=O)/C(=C/c2cccnc2)N1` [Compound 19, (Z)-5-[(3′-Pyridinyl)methylene]-2,4-imidazolidinedione], the IC50 is over 1000 µM.

`O=C1NC(=O)/C(=C/c2ccc3ccccc3n2)N1` [Compound 18, (Z)-5-[(2-Quinolinyl)methylene]-2,4-imidazolidinedione] showed a half-maximal inhibitory concentration (IC50) of over 1000 µM.

`O=C1NC(=O)/C(=C/c2cccc(Br)n2)N1` [Compound 27, (Z)-5-[(6′-Bromo-2-pyridinyl)methylene]-2,4-imidazolidinedione] came in with a half-maximal inhibitory concentration (IC50) of over 1000 µM.

As for `Cc1ccnc(/C=C2\NC(=O)NC2=O)c1` [Compound 21, (Z)-5-[(4′-Methyl-2-pyridinyl)methylene]-2,4-imidazolidinedione-HCl], the IC50 is over 1000 µM.

Regarding `Cc1cccc(/C=C2\NC(=O)NC2=O)n1` [Compound 23, (Z)-5-[(6′-Methyl-2-pyridinyl)methylene]-2,4-imidazolidinedione-HCl], the concentration for half-maximal inhibition (IC50) is over 1000 µM.

In a further data set the target is GSK-3β (Homo sapiens, UniProt P49841). The data set can be described thus: GSK-3β kinase HotSpot assay (Reaction Biology). It counts as biochemical. The note with it: 25 μM compound, 10 μM ATP, duplicate, average; remaining kinase activity vs vehicle.
GSK-3β, sequence (P49841 whole entry): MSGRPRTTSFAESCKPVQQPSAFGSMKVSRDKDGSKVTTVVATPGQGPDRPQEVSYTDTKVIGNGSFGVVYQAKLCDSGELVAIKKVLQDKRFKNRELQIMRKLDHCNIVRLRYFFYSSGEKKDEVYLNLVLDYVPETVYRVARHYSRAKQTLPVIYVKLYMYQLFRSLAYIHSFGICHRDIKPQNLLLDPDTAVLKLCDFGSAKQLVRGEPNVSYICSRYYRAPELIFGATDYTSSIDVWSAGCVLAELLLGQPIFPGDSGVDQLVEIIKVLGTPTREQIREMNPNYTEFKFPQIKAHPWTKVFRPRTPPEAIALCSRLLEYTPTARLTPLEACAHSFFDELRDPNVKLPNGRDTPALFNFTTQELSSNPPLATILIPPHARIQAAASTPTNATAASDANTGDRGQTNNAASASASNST
Turning to `O=C1NC(=O)/C(=C/c2ccccn2)N1` [Compound 17, (Z)-5-[(2′-Pyridinyl)methylene]-2,4-imidazolidinedione], the activity at 25 µM came out at 55.4%.

Regarding `Cc1ccc(/C=C2\NC(=O)NC2=O)nc1` [Compound 22, (Z)-5-[(5′-Methyl-2-pyridinyl)methylene]-2,4-imidazolidinedione], the activity at 25 µM worked out at 47%.

For the molecule `O=C1NC(=O)/C(=C/c2cccnc2)N1` [Compound 19, (Z)-5-[(3′-Pyridinyl)methylene]-2,4-imidazolidinedione], the activity at 25 µM amounted to 71.8%.

For `O=C1NC(=O)/C(=C/c2ccc3ccccc3n2)N1` [Compound 18, (Z)-5-[(2-Quinolinyl)methylene]-2,4-imidazolidinedione], the activity at 25 µM was determined as 32.9%.

Turning to `O=C1NC(=O)/C(=C/c2cccc(Br)n2)N1` [Compound 27, (Z)-5-[(6′-Bromo-2-pyridinyl)methylene]-2,4-imidazolidinedione], the activity at 25 µM was 17%.

For the molecule `Cc1ccnc(/C=C2\NC(=O)NC2=O)c1` [Compound 21, (Z)-5-[(4′-Methyl-2-pyridinyl)methylene]-2,4-imidazolidinedione-HCl], the activity at 25 µM stood at 42%.

In the case of `Cc1cccc(/C=C2\NC(=O)NC2=O)n1` [Compound 23, (Z)-5-[(6′-Methyl-2-pyridinyl)methylene]-2,4-imidazolidinedione-HCl], the activity at 25 µM worked out at 28.4%.

Still in this data set, the particulars now being: 10-point, triplicate, 10 μM ATP, average ± SD.
For the molecule `O=C1NC(=O)/C(=C/c2cccc(Br)n2)N1` [Compound 27, (Z)-5-[(6′-Bromo-2-pyridinyl)methylene]-2,4-imidazolidinedione], the half-maximal inhibitory concentration (IC50) is 3.39 ± 0.16 µM.

The molecule `Cc1cccc(/C=C2\NC(=O)NC2=O)n1` [Compound 23, (Z)-5-[(6′-Methyl-2-pyridinyl)methylene]-2,4-imidazolidinedione-HCl] displayed an IC50 of 8.34 ± 0.27 µM.

The next data set deals with human carbonic anhydrase II (hCAII) (Homo sapiens, UniProt P00918). The experiment in a line: Human carbonic anhydrase II p-nitrophenyl acetate assay. It counts as biochemical. The note with it: 200 μM compound. The method, then:
as §1
Assays for human carbonic anhydrase II activity were performed in a 96-well plate format for a total reaction volume of 100 μL, in an assay modified from Day and Cohen. All assay reagents and solutions were prepared separately and maintained at 22 °C until warmed to 30 °C. All substrates, effectors, and enzyme were freshly dissolved and diluted in assay buffer containing 50 mM Tris (pH 8.0). The final concentration of the human carbonic anhydrase II enzyme was 200 nM. Where noted, acetazolamide was included at a final concentration of 10 μM. The substrate, p-nitrophenyl acetate, was added at a final concentration of 504 μM. For all experiments, 20 μL of enzyme stock solution was added to each well in a 96-well, flat-bottom, polystyrene microplate (Santa Cruz Biotechnology, Dallas, TX, USA), followed by the addition of 10 μL of the effectors (assay buffer for the uninhibited reaction, acetazolamide for the inhibition). The 96-well plate was then incubated in a plate reader at 30 °C for 10 min; concurrently, the substrate solution was also warmed to 30 °C for 10 min. The enzymatic reaction was initiated by adding 70 μL of the substrate solution (p-nitrophenyl acetate). The absorbance values were then measured at 405 nm every 30 s over a period of 20 min for a total of 40 measurements.
Take `Cc1ccc(/C=C2\NC(=O)NC2=O)nc1` [Compound 22, (Z)-5-[(5′-Methyl-2-pyridinyl)methylene]-2,4-imidazolidinedione]: the activity at 200 µM was determined as 87.4 ± 11.8%.

On to `O=C1NC(=O)/C(=C/c2cccnc2)N1` [Compound 19, (Z)-5-[(3′-Pyridinyl)methylene]-2,4-imidazolidinedione], for which the activity at 200 µM was 88.9 ± 12.3%.

For the molecule `O=C1NC(=O)/C(=C/c2cccc(Br)n2)N1` [Compound 27, (Z)-5-[(6′-Bromo-2-pyridinyl)methylene]-2,4-imidazolidinedione], the activity at 200 µM worked out at 86.7 ± 12.1%.

For the molecule `Cc1ccnc(/C=C2\NC(=O)NC2=O)c1` [Compound 21, (Z)-5-[(4′-Methyl-2-pyridinyl)methylene]-2,4-imidazolidinedione-HCl], the activity at 200 µM is 94.8 ± 12.8%.

On to `Cc1cccc(/C=C2\NC(=O)NC2=O)n1` [Compound 23, (Z)-5-[(6′-Methyl-2-pyridinyl)methylene]-2,4-imidazolidinedione-HCl], for which the activity at 200 µM is 88.9 ± 12.3%.

Tested on in another data set: not given
Assay: not given
Settings: not given
Regarding `O=C1NC(=O)/C(=C/c2ccccn2)N1` [Compound 17, (Z)-5-[(2′-Pyridinyl)methylene]-2,4-imidazolidinedione], the melting point is 231 to 233 °C.

`Cc1ccc(/C=C2\NC(=O)NC2=O)nc1` [Compound 22, (Z)-5-[(5′-Methyl-2-pyridinyl)methylene]-2,4-imidazolidinedione] showed a melting point of over 250 °C.

`O=C1NC(=O)/C(=C/c2cccnc2)N1` [Compound 19, (Z)-5-[(3′-Pyridinyl)methylene]-2,4-imidazolidinedione] registered a melting point of over 255 °C.

`O=C1NC(=O)/C(=C/c2ccc3ccccc3n2)N1` [Compound 18, (Z)-5-[(2-Quinolinyl)methylene]-2,4-imidazolidinedione] showed a melting point of over 255 °C.

Turning to `O=C1NC(=O)/C(=C/c2cccc(Br)n2)N1` [Compound 27, (Z)-5-[(6′-Bromo-2-pyridinyl)methylene]-2,4-imidazolidinedione], the melting point was over 250 °C.
